≈ marks a conversion by molar mass, not a printed value. Read-outs that look alike come from different tables or passages of the source.
Assays:
Staphylococcus aureus = experiment: Anti-bacterial activity, agar well diffusion; format: cell-based
porcine α-amylase = target: T1, porcine α-amylase (Sus scrofa, UniProt P00690); experiment: biochemical
T1 sequence (P00690 16-511): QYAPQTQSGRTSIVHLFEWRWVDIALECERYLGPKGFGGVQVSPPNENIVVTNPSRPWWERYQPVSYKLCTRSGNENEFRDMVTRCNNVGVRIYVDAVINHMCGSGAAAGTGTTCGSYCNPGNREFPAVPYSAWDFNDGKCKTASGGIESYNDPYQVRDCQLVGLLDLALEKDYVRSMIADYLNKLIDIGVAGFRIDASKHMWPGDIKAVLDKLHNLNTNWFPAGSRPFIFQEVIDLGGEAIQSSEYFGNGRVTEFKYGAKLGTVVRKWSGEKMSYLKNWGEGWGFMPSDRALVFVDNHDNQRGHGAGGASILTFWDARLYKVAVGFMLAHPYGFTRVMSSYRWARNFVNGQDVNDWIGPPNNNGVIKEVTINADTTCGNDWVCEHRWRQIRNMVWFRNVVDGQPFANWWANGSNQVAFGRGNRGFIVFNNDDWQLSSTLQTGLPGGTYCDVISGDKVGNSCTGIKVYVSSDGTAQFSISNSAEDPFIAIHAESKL

Acetylcholinesterase = Acetylcholinesterase (Homo sapiens, UniProt P22303); experiment: biochemical
Sequence of Acetylcholinesterase (P22303 32-614, species assumed): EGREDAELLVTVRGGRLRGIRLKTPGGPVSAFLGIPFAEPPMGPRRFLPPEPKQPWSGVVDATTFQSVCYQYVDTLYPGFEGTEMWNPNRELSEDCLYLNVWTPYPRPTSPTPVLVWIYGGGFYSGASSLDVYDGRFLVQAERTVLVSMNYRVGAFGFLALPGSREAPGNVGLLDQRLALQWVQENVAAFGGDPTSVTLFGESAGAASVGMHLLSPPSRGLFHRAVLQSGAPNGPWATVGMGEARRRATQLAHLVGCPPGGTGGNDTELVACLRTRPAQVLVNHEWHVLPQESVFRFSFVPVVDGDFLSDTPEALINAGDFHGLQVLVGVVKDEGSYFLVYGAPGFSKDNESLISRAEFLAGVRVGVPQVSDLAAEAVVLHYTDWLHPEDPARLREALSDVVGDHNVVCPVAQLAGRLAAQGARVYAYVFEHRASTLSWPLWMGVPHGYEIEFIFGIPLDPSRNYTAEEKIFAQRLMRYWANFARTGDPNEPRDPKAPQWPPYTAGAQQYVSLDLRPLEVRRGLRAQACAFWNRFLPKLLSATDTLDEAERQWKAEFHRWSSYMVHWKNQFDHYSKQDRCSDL

[1] = ABTS free radical scavenging
glucose-6-phosphatase = target: T2, glucose-6-phosphatase (Homo sapiens, UniProt P35575); experiment: Glucose-6-phosphatase activity; format: biochemical; details: for Total Activity of glucose-6-phosphatase: 33°C, pH 6.7, control 72.0
T2 sequence (P35575 1-357): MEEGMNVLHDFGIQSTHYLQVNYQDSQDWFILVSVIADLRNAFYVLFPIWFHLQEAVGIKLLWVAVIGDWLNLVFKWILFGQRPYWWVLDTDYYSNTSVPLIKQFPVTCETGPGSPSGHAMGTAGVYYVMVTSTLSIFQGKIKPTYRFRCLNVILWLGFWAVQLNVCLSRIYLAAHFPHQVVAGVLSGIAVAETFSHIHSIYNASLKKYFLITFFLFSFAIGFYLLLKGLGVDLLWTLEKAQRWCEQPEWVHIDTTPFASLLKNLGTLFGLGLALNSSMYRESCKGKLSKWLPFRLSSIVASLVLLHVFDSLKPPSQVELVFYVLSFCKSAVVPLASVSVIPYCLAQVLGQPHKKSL

Butyrylcholinesterase = Butyrylcholinesterase (Homo sapiens, UniProt P06276); experiment: Anticholinesterase assay; format: biochemical
Sequence of Butyrylcholinesterase (P06276 29-602): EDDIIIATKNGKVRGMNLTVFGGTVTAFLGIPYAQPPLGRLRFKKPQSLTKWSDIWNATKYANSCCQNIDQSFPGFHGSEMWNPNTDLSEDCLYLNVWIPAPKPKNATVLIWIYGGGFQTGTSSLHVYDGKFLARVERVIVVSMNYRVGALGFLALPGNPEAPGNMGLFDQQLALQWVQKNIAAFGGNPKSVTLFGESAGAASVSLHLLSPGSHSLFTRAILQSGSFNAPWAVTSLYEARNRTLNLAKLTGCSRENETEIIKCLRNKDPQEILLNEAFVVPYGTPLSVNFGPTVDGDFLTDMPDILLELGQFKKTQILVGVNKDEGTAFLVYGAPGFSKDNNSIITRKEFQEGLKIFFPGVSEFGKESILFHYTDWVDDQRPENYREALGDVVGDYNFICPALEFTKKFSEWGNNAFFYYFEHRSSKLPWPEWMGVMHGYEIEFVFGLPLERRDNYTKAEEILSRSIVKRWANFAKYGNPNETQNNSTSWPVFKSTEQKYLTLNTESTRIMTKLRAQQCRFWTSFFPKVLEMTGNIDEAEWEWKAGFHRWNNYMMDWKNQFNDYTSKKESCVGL

[2] = DPPH free radical scavenging
[3] = tested on: Agrobacterium tumefaction; experiment: Anti-bacterial activity, agar well diffusion; format: cell-based
Proteus vulgaris = experiment: Anti-bacterial activity, agar well diffusion; format: cell-based
α-glucosidase = α-glucosidase (Saccharomyces cerevisiae, UniProt P53341); experiment: Alpha glucosidase inhibition; format: biochemical
Sequence of α-glucosidase (P53341 whole entry): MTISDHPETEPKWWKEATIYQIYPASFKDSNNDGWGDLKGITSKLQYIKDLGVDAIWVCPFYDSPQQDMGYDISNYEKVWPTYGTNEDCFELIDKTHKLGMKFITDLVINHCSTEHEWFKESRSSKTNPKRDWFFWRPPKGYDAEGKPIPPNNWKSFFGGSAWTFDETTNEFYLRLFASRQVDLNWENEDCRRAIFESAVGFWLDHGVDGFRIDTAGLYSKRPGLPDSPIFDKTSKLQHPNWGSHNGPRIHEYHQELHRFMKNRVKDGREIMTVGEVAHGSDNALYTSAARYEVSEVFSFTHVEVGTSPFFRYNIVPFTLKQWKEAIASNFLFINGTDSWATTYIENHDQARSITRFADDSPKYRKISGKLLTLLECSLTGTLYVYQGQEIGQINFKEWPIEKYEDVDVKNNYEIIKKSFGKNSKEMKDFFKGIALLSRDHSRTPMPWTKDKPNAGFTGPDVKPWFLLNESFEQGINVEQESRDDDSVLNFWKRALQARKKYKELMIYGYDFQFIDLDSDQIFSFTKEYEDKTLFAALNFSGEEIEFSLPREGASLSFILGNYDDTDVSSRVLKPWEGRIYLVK

[4] = read-out: ZI (Zone of inhibition), Staphylococcus aureus
[5] = read-out: %AChE Inhibition (mean ± SEM)
[6] = read-out: %BChE Inhibition (mean ± SEM)
[7] = read-out: ZI (Zone of inhibition), Agrobacterium tumefaction
[8] = read-out: ZI (Zone of inhibition), Proteus vulgaris
[9] = read-out: %Inhibition (mean ± SEM), alpha amylase

With `Fc1ccccc1NC(=S)Nc1ccccc1` [Compound V, 1-(2-fluorophenyl)-3-phenylthiourea] the MIC (Staphylococcus aureus; read-out: MIC, Staphylococcus aureus) was 24.1 µg/mL (≈ 97.9 µM), the zone of inhibition at 10 µg/mL (Staphylococcus aureus; [4]) was 12 mm and the zone of inhibition at 20 µg/mL (Staphylococcus aureus; [4]) was 14 mm. It also gave a zone of inhibition at 30 µg/mL (Staphylococcus aureus; [4]) of 16 mm, an IC50 (porcine α-amylase) of 406 µM and an inhibition at 125 µg/mL (porcine α-amylase; read-out: %Inhibition (mean ± SEM), alpha amylase, concentration 125 µg/mL) of 52.1 ± 2.11%. The inhibition at 250 µg/mL (porcine α-amylase; read-out: %Inhibition (mean ± SEM), alpha amylase, concentration 250 µg/mL) was 55.91 ± 0.43%, the inhibition at 500 µg/mL (porcine α-amylase; read-out: %Inhibition (mean ± SEM), alpha amylase, concentration 500 µg/mL) was 59.5 ± 1.24% and the inhibition at 1000 µg/mL (porcine α-amylase; read-out: %Inhibition (mean ± SEM), alpha amylase, concentration 1000 µg/mL) was 62.8 ± 1.13%. For the same compound, the IC50 (Acetylcholinesterase) was 739 µM, the inhibition at 125 µg/mL (Acetylcholinesterase; [5]) was 51.8 ± 1.72% and the inhibition at 250 µg/mL (Acetylcholinesterase; [5]) was 56.3 ± 2.14%. For the same compound, the inhibition at 500 µg/mL (Acetylcholinesterase; [5]) was 68.2 ± 1.25%, the inhibition at 1000 µg/mL (Acetylcholinesterase; [5]) was 70.2 ± 1.09% and the “ABTS IC50” value [1] was 85 µg/mL. The “ABTS % I (mean ± S.E.M)” value ([1]; concentration 125 μg/mL) was 69.45 ± 1.29%, the “ABTS % I (mean ± S.E.M)” value ([1]; concentration 250 μg/mL) was 71.14 ± 1.90% and the “ABTS % I (mean ± S.E.M)” value ([1]; concentration 500 μg/mL) was 73.18 ± 1.46%. For the same compound, the “ABTS % I (mean ± S.E.M)” value ([1]; concentration 1000 μg/mL) was 75.04 ± 0.10%, the “Glucose-6-phosphatase inhibition, in words” value (glucose-6-phosphatase; compared to control experiments) was “most potent inhibitors” and the “Total Activity of glucose-6-phosphatase” value (glucose-6-phosphatase; concentration 125 µg/mL) was 05.66 mg of P released per hour. For the same compound, the “Total Activity of glucose-6-phosphatase” value (glucose-6-phosphatase; concentration 250 µg/mL) was 05.21 mg of P released per hour, the “Total Activity of glucose-6-phosphatase” value (glucose-6-phosphatase; concentration 500 µg/mL) was 04.16 mg of P released per hour and the IC50 (Butyrylcholinesterase) was 406 µM. It also gave an inhibition at 125 µg/mL (Butyrylcholinesterase; [6]) of 53.07 ± 0.48%, an inhibition at 250 µg/mL (Butyrylcholinesterase; [6]) of 55.1 ± 1.04% and an inhibition at 500 µg/mL (Butyrylcholinesterase; [6]) of 59.1 ± 1.76%. The inhibition at 1000 µg/mL (Butyrylcholinesterase; [6]) was 62.7 ± 1.22%, the “DPPH IC50” value [2] was 70 µg/mL and the “DPPH % I (mean ± S.E.M)” value ([2]; concentration 125 μg/mL) was 68.83 ± 1.53%. The “DPPH % I (mean ± S.E.M)” value ([2]; concentration 250 μg/mL) was 70.55 ± 1.27%, the “DPPH % I (mean ± S.E.M)” value ([2]; concentration 500 μg/mL) was 71.50 ± 1.61% and the “DPPH % I (mean ± S.E.M)” value ([2]; concentration 1000 μg/mL) was 73.14 ± 1.10%. It also gave an MIC ([3]; read-out: MIC, Agrobacterium tumefaction) of 11.6 µg/mL (≈ 47.1 µM), a zone of inhibition at 10 µg/mL [3, 7] of 15 mm and a zone of inhibition at 20 µg/mL [3, 7] of 20 mm. The zone of inhibition at 30 µg/mL [3, 7] was 25 mm, the MIC (Proteus vulgaris; read-out: MIC, Proteus vulgaris) was 8.94 µg/mL (≈ 36.3 µM) and the zone of inhibition at 10 µg/mL (Proteus vulgaris; [8]) was 16 mm. It also gave a zone of inhibition at 20 µg/mL (Proteus vulgaris; [8]) of 21 mm and a zone of inhibition at 30 µg/mL (Proteus vulgaris; [8]) of 24 mm.
For `C[C@H]1O[C@H](O[C@H]2[C@H](O)[C@@H](O)[C@@H](O[C@H]3[C@H](O)[C@@H](O)C(O)O[C@@H]3CO)O[C@@H]2CO)[C@H](O)[C@@H](O)[C@@H]1N[C@H]1C=C(CO)[C@@H](O)[C@H](O)[C@H]1O` (stereo partly shown) [Acarbose], the inhibition at 125 µg/mL (porcine α-amylase; [9]) was 58.1 ± 1.34%, the inhibition at 500 µg/mL (porcine α-amylase; [9]) was 73 ± 1.34% and the inhibition at 1000 µg/mL (porcine α-amylase; [9]) was 88.1 ± 1.13%. For the same compound, the “%Inhibition (mean ± SEM), alpha glucosidase” value (from here on “%Inhibition (mean ± SEM)”) (α-glucosidase) was 94.02 ± 1.23%, the “%Inhibition (mean ± SEM)” value (α-glucosidase; concentration 125 μg/mL) was 59.83 ± 2.04% and the “%Inhibition (mean ± SEM)” value (α-glucosidase; concentration 250 μg/mL) was 68.14 ± 2.18%. For the same compound, the “%Inhibition (mean ± SEM)” value (α-glucosidase; concentration 500 μg/mL) was 79.11 ± 2.12%.
With `O=C1O[C@H]([C@@H](O)CO)C(O)=C1O` [Ascorbic acid, reference compound] the “ABTS IC50” value [1] was 55 µg/mL, the “ABTS % I (mean ± S.E.M)” value ([1]; concentration 125 μg/mL) was 55.30 ± 1.75% and the “ABTS % I (mean ± S.E.M)” value ([1]; concentration 250 μg/mL) was 70.14 ± 1.16%. The “ABTS % I (mean ± S.E.M)” value ([1]; concentration 500 μg/mL) was 85.45 ± 1.36%, the “ABTS % I (mean ± S.E.M)” value ([1]; concentration 1000 μg/mL) was 88.17 ± 0.43% and the “DPPH IC50” value [2] was 35 µg/mL. The “DPPH % I (mean ± S.E.M)” value ([2]; concentration 125 μg/mL) was 67.40±1.18%, the “DPPH % I (mean ± S.E.M)” value ([2]; concentration 250 μg/mL) was 76.13±1.45% and the “DPPH % I (mean ± S.E.M)” value ([2]; concentration 500 μg/mL) was 85.11 ± 1.64%. For the same compound, the “DPPH % I (mean ± S.E.M)” value ([2]; concentration 1000 μg/mL) was 90.14 ± 0.76%.

From paper PMC6789174 (Drug Design, Development and Therapy, 2019)
